Source: patent US20220387375A1, “TRPV1 ACTIVATION-MODULATING COMPLEX MIXTURES OF CANNABINOIDS AND/OR TERPENES” (GBS Global Biopharma, Inc., priority 2018, published 2022)

What was measured:
[1] = molecular target: T1, TRPV1 (Rattus norvegicus, UniProt O35433); assay: Whole-cell patch clamp of TRPV1 currents in HEK293 cells overexpressing TRPV1 (HEK293-V1); format: cell-based; conditions: for ion selectivity / state of TRPV1 activation: 10 μM capsaicin; for effect of increasing internal calcium (0, 180, 620 nM) on falling phase or inactivation kinetics: 10 μM myrcene, then 1 μM capsaicin; for time course of induced TRPV1 current (sustained or inactivating): cannabinoid at 50, 5 μM myrcene or 1 μM capsaicin
T1 construct: FLAG; expressed in transfected cells
Protocol: HEK TRexTRPV1 were cultured in DMEM, 10% Fetal Bovine Serum, 2 mM Lglutamine, 10 μg/ml Blasticidin (Calbiochem, San Diego Calif.), 400 μg/ml Zeocin (InvivoGen, San Diego Calif.), where indicated transgene expression was induced using 1 μg/ml Tetracycline for 16-24 hrs. Unless otherwise indicated, basal expression of TRPV1 without induction was sufficient for these studies, and comparisons were made to untransfected HEK where needed. HEKTRex293 over-expressing human TRPV2, human TRPA1 and human TRPM8 were obtained from SB Drug Discovery (Glasgow, Scotland) and cultured as described above. The cannabinoids and terpenes were assayed in HEK cells that have been transfected with the TRPV1 ion channel protein. These cells are called HEK293-V1 cells.
This technique is used to study ionic currents from HEK293-V1. The voltage across the cell membrane is controlled and the ionic currents associated with changes in voltage are measured. A micropipette tip is pulled to a few micrometers in diameter followed by heating the tip to produce a smooth surface that assists in forming a high resistance seal with the cell membrane. To obtain this high resistance seal, the micropipette is pressed against a cell membrane and suction is applied. The membrane then fuses onto the glass surface creating a high resistance in the gigaohm range. This makes it possible to isolate electronically the ionic currents measured across the membrane patch or across the entire cell.
Patch-clamp experiments were performed in the whole-cell configuration at 21-25° C. Patch pipettes had resistances of 2-3 MΩ. Data was acquired with PatchMaster software (HEKA, Lambrecht, Germany), controlling an EPC-9 amplifier. Voltage ramps of 50 ms spanning the voltage range from −100 to 100 mV were delivered from a holding potential of 0 mV at a rate of 0.5 Hz over a period of 500 ms to 180 seconds (3 minutes). Voltages were corrected for a liquid junction potential of 10 mV. Currents were filtered at 2.9 kHz and digitized at 100 μs intervals. Capacitive currents were determined and corrected before each voltage ramp. The development of currents for a given potential was extracted from individual ramp current records by measuring the current amplitudes at voltages of −80 mV and +80 mV. Data were analyzed with FitMaster (HEKA, Lambrecht, Germany), and IgorPro (WaveMetrics, Lake Oswego, Oreg., USA). Where applicable, statistical errors of averaged data are given as mean±s.e.m with n determinations. The activated current amplitudes are analyzed by nA rather than pA/pF. […] Also the cell size selected for patching was in the 9 -12 pF range.
For patch-clamp recordings, HEK293 cells were kept in a standard sodium-based external Ringer's solution containing (mM): 140 NaCl, 1 CaCl2, 2 MgCl2, 2.8 KCl, 11 glucose, 10 HEPES-NaOH with a pH of 7.2 and osmolarity of 300 mOsmol. To assess the effects of external Calcium (Ca) on TRPV1 inactivation kinetics, Ca at different levels were tested including 0, 1, and 3 mM. In Experiments with zero external Ca, EGTA 10 mM was added and the Na concentration was lowered to 130 mM to maintain standard osmotic conditions at 300 mOsmol. For rapid external solution application and exchanges we used the SmartSquirt delivery system (Auto-Mate Scientific, San Francisco Calif., USA) that included four cryo tubes allowing for solution exchanges within one patch. This system included a ValveLink TTL interface between the electronic valves and the EPC10 amplifier (HEKA, Lambrecht, Germany). This electronic configuration allowed for programmable solution changes via the PatchMaster software (HEKA, Lambrecht, Germany).

[2] = molecular target: T1, TRPV1; assay: Bulk calcium assay (Fluo-4) in HEK-TRPV1 overexpressing cells; format: cell-based; conditions: for TRPV1-mediated calcium influx compared to vehicle: terpene 10 μM, vehicle subtracted (FIG. 14)
Protocol: Cells were washed and incubated with 0.2 micromolar Fluo-4 for 30 minutes at 37° C. in a standard modified Ringer's solution of the following composition (in mM): NaCl 145, KCl 2.8, CsCl 10, CaCl2 10, MgCl2 2, glucose 10, Hepes·NaOH 10, pH 7.4, 330 mOsm. Cells were transferred to 96-well plates at 50,000 cells/well and stimulated as indicated. Calcium signals were acquired using a Flexstation 3 (Molecular Devices, Sunnydale, USA). Data was analyzed using SoftMax® Pro 5 (Molecular Devices). Where indicated, nomically calcium-free external conditions were achieved by the preparation of 0 mM CaCl2 Ringer solution containing 1 mM EGTA.
The cell culture system described in U.S. patent application Ser. No. 15/986,316 was used to test the TRPV1-mediated calcium response to various terpenes. The HEK293 cell line was stably transfected with the pcDNA6TR (Invitrogen, CA) plasmid (encoding the tetracycline-sensitive TREx repressor protein), and was maintained in DMEM+10% fetal bovine serum (inactivated at 55° C. for 1 h)+2 mM glutamine in humidified 5% CO2 atmosphere at 37° C. Selection pressure on the TRex 293 cells was maintained by continuous culture in 10 μg/ml Blasticidin (Sigma, St Louis, Mo.).
For production of TRex HEK293 cells with inducible expression of TRPV1, parental cells were electroporated with the rat TRPV1 cDNA in the pcDNA4TO vector and clonal cell lines were selected by limiting dilution in the presence of 400 μg/ml zeocin (Invitrogen, CA). TRPV1 expression was induced using 1 μg/ml tetracycline for 16 h at 37° C. Stable lines were screened for inducible protein expression using anti-FLAG Western blot, and inducible expression was confirmed.
Calcium responses mediated by TRPV1 were tested by calcium assay in the cell culture system. Cells were washed and incubated with 0.2 μM fluo-4 acetoxymethyl ester (“Fluo-4”) for 30 minutes at 37° C. in a standard modified Ringer's solution of the following composition (in mM): NaCl 145, KCl2.8, CsCl10, CaCl2 10, MgCl2 2, glucose 10, Hepes·NaOH 10, pH 7.4, 330 mOsm. Cells were transferred to 96-well plates at 50,000 cells/well and stimulated as indicated. The terpenes used were alpha-bisabool, alpha-pinene, myrcene, camphene, linalool, ocimene, humulene, beta-caryophyllene, beta-pinene, limonene, and nerolidol. The terpenes were diluted in DMSO and added to the wells to a final concentration of 10 μM. Vehicle (DMSO) alone was run as a negative control and subtracted from the terpene traces. Calcium signals were acquired using a Flexstation 3 (Molecular Devices, Sunnydale, USA). Data was analyzed using SoftMax® Pro 5 (Molecular Devices).
Calcium responses mediated by TRPA1, TRPM8, TRPV2, and TRPV1 were tested by calcium assay in the cell culture system. Cells were washed and incubated with 0.2 μM fluo-4 acetoxymethyl ester (“Fluo-4”) for 30 minutes at 37° C. in a standard modified Ringer's solution of the following composition (in mM): NaCl 145, KCl 2.8, CsCl 10, CaCl2 10, MgCl2 2, glucose 10, Hepes·NaOH 10, pH 7.4, 330 mOsm. Cells were transferred to 96-well plates at 50,000 cells/well and stimulated with 10 μM myrcene diluted in DMSO. Vehicle (DMSO) was used as a negative control. Vehicle traces were subtracted from the myrcene traces for each cell line.
As shown in FIGS. 16A-H, a variety of cannabinoids were capable of initiating Ca^2+ fluxes in HEK-TRPV1 overexpressing cells, except for cannabigerol and cannabinol. Comparative responses to a single dose (10 μM concentration) of a variety of cannabinoids were made in the presence of 1 mM external Ca^2+, which are population-based, or bulk Ca^2+, measurements with each trace representing averaged triplicates of 100,000 cells per sample. […] For each of the cannabinoid compounds, dose responses at the population level were performed. […] The lower limit of detectable calcium responses in this system varied from 10-100 nM (CBDV, CBGA) to 1-10 μM.

T1 sequence (O35433 whole entry): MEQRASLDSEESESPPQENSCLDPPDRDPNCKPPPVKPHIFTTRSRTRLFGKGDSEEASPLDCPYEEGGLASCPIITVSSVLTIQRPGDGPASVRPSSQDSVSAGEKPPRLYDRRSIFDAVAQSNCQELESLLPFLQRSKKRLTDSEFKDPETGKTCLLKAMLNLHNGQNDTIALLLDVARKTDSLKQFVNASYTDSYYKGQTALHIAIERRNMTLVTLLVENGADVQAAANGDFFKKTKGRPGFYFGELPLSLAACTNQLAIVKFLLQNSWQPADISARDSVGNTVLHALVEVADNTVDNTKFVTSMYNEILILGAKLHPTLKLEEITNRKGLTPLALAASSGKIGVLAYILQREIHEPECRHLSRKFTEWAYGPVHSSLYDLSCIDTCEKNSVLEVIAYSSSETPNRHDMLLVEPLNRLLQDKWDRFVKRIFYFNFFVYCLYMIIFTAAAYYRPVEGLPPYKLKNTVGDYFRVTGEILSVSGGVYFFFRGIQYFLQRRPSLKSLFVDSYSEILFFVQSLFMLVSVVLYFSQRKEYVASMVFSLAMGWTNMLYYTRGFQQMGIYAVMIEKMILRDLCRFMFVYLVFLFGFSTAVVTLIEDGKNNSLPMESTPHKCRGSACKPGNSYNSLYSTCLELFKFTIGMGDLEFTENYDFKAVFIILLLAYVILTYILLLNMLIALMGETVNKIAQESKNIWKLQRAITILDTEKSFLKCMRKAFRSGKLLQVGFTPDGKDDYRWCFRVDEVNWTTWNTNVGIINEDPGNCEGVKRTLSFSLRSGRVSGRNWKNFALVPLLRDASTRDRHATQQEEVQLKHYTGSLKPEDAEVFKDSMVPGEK

COc1cc(CNC(=O)CCCC/C=C/C(C)C)ccc1O [capsaicin, Capsaicin, reference compound]
current induced ([1]; 1 μM capsaicin (not shown), comparison to myrcene): 4-10 nA | ion selectivity / state of TRPV1 activation ([1]; absence of internal BAPTA and Ca2+): Ca^2 ion selective TRPV1 activation | ion selectivity / state of TRPV1 activation ([1]; presence of internal 10 mM BAPTA and 150 nM Ca2+): Na^+ ion selective TRPV1 activation | effect of increasing internal calcium (0, 180, 620 nM) on falling phase or inactivation kinetics [1]: stronger effect | type of TRPV1 current recorded ([1]; Capsaicin 50 nM for 60 seconds, Ca 0 internally and externally): outwardly rectifying TRPV1 current | rectification of current (resulted in rectifying currents or not) ([1]; Capsaicin 500 nM): did not | rectification of current ([1]; Capsaicin low (30 nM) and medium (100 nM) doses): rectifying currents | IV relationship / TRPV1 channel state ([1]; after 1 μM capsaicin): linear due to TRPV1 transitioning to the dilated state (state 2) | time course of induced TRPV1 current (sustained or inactivating) [1]: sustained

CC(C)=CCC[C@](C)(O)[C@@H]1CC=C(C)CC1 [alpha-bisabool]
TRPV1-mediated calcium influx compared to vehicle [2]: little to no calcium influx

C/C1=C\CC/C(C)=C/CC(C)(C)/C=C/C1 [humulene]
TRPV1-mediated calcium influx compared to vehicle [2]: little to no calcium influx

Oc1cc2c(cc1O)CN(C(=S)NCCc1ccc(Cl)cc1)CCC2 [Capsazepine, reference compound]
effect on capsaicin-induced TRPV1 current ([1]; CPZ 10 μM for 30 seconds after 50 nM Capsaicin for 60 seconds): reduced both the inward and outward currents | effect on capsaicin-activated TRPV1 channel (state 1 and state 2) ([1]; CPZ added after 10 μM capsaicin): rapid TRPV1 channel deactivation | effect on CBD-induced TRPV1 current ([1]; CPZ application 30 seconds after CBD 30 μM): reduced

C=CC(C)(O)CCC=C(C)CCC=C(C)C (stereo not drawn) [nerolidol]
TRPV1-mediated calcium influx compared to vehicle [2]: brief initial calcium influx

C=CC(C)=CCC=C(C)C [ocimene]
TRPV1-mediated calcium influx compared to vehicle [2]: little to no calcium influx

C=CC(=C)CCC=C(C)C [myrcene, 7-methyl-3-methylideneocta-1,6-diene]
inward current induced ([1]; 5 μM myrcene, average of 6 independent experiments): approximately 0.5 nA | effect of increasing internal calcium (0, 180, 620 nM) on falling phase or inactivation kinetics [1]: minor effect | IV relationship / TRPV1 channel state ([1]; 50 μM myrcene (FIG. 10C)): state 1 | IV relationship / TRPV1 channel state ([1]; 150 μM myrcene (FIG. 11)): state 1 | time course of induced TRPV1 current (sustained or inactivating) [1]: rapidly inactivating | current induced ([1]; myrcene 5 μM, 10 μM and 150 μM (FIGS. 8A-8C)): 0.5-2.2 nA | activation of cells overexpressing TRPV1 (calcium entry) ([2]; 10 μM myrcene): activated | TRPV1-mediated calcium influx compared to vehicle [2]: greatest amount of calcium influx

C=CC(C)(O)CCC=C(C)C (stereo not drawn) [linalool]
TRPV1-mediated calcium influx compared to vehicle [2]: little to no calcium influx

C=C(C)[C@H]1CC=C(C)CC1 [limonene]
TRPV1-mediated calcium influx compared to vehicle [2]: little to no calcium influx

CC1=CCC2CC1C2(C)C (stereo not drawn) [alpha-pinene]
TRPV1-mediated calcium influx compared to vehicle [2]: little to no calcium influx

C=C1CC/C=C(\C)CC[C@@H]2[C@@H]1CC2(C)C [beta-caryophyllene]
TRPV1-mediated calcium influx compared to vehicle [2]: little to no calcium influx

C=C1CCC2CC1C2(C)C (stereo not drawn) [beta-pinene]
TRPV1-mediated calcium influx compared to vehicle [2]: little to no calcium influx

C=C1C2CCC(C2)C1(C)C (stereo not drawn) [camphene]
TRPV1-mediated calcium influx compared to vehicle [2]: little to no calcium influx
